The record followed here is patent US8623862B2, “Derivatives of N-[(1H-pyrazol-1-yl)aryl]-1H-indole or 1H-indazole-3-carboxamide, preparation thereof and applications thereof in therapeutics” (Sanofi, priority 2011, dated 2014).

Read-outs that look alike come from different tables or passages of the source.

The experiment concerns platelet aggregation. The experiment in a line: Inhibition of platelet aggregation in vitro (rat blood).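 Note: aggregation induced by ADP added as 4 µL of a 250 µM solution.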 As to conditions: read-out: Inhibition of platelet aggregation in vitro (rat blood). The format is cell-based. As to the method: The measurements of platelet aggregation are performed at 37° C. in glass tubes (Chrono-Log—Kordia aggregometer).
Inhibition of Platelet Aggregation In Vitro (Rat Blood)
The blood is taken from male rats of the Sprague-Dawley strain, weighing 250-300 g.
The platelet-rich plasma (PRP) is obtained by centrifugation of the blood at 300 g for 5 minutes, and the measurements of platelet aggregation are performed as described above.
The results are calculated using the area under the curve of absorbance measured for 6 minutes, and expressed as percentage inhibition.

Setting [1] is: rat platelet-rich plasma, ADP-induced aggregation, area under the curve of absorbance for 6 minutes.

`CCCC(=O)c1cnn(-c2ccc(NC(=O)c3cn(CC(=O)NCCn4cccc4)c4ccc(Cl)cc34)nn2)c1C` [Compound 58]: under setting [1], the IC50 was 450 nM.
Regarding `CCCC(=O)c1cnn(-c2ccc(NC(=O)c3cn(CC(=O)N(C)CCOC)c4ccc(Cl)cc34)nn2)c1C` [Compound 61], the IC50 under setting [1] was 90 nM.
Regarding `CCCC(=O)c1cnn(-c2ccc(NC(=O)c3cn(CC(=O)N(C)Cc4ccco4)c4ccc(Cl)cc34)nn2)c1C` [Compound 62], the IC50 under setting [1] came to 150 nM.
The same measure, in the same setting: the value for `CCCC(=O)c1cnn(-c2ccc(NC(=O)c3cn(CC(=O)N4CCNC(=O)C4)c4ccc(Cl)cc34)nn2)c1C` [Compound 64] was 60 nM; that for `CCCC(=O)c1cnn(-c2ccc(NC(=O)c3cn(CC(=O)N4CCC(N5CCOCC5)CC4)c4ccc(Cl)cc34)nn2)c1C` [Compound 65] was 120 nM; that for `CCCC(=O)c1cnn(-c2ccc(NC(=O)c3cn(CC(=O)N4CC(O)C4)c4ccc(Cl)cc34)nn2)c1C` [Compound 66] was 220 nM.
Same read-out and setting: with `CCCC(=O)c1cnn(-c2ccc(NC(=O)c3cn(CC(=O)N4CCC(O)CC4)c4ccc(Cl)cc34)nn2)c1C` [Compound 68] the figure was 70 nM.
Same read-out and setting: with `CCCC(=O)c1cnn(-c2ccc(NC(=O)c3cn(CC(=O)N4CCN(C(=O)N(C)C)CC4)c4ccc(Cl)cc34)nn2)c1C` [Compound 69] the figure was 100 nM.
Take `CCCC(=O)c1cnn(-c2ccc(NC(=O)c3cn(CC(=O)N4CCn5cnnc5C4)c4ccc(Cl)cc34)nn2)c1C` [Compound 70]: the IC50 under setting [1] came out at 110 nM.
Same read-out and setting: with `CCCC(=O)c1cnn(-c2ccc(NC(=O)c3cn(CC(=O)N4CCS(=O)(=O)CC4)c4ccc(Cl)cc34)nn2)c1C` [Compound 71] the figure was 120 nM.
The same measure, in the same setting: the value for `CCCC(=O)c1cnn(-c2ccc(NC(=O)c3cn(CC(=O)N(C)CCCO)c4ccc(Cl)cc34)nn2)c1C` [Compound 72] was 60 nM; that for `CCCC(=O)c1cnn(-c2ccc(NC(=O)c3cn(CC(=O)N4CCN(C5CCS(=O)(=O)C5)CC4)c4ccc(Cl)cc34)nn2)c1C` (stereo not shown) [Compound 73] was 50 nM.
`CCCC(=O)c1cnn(-c2ccc(NC(=O)c3cn(CC(=O)NCc4n[nH]c(C)n4)c4ccc(Cl)cc34)nn2)c1C` [Compound 74]: under setting [1], the IC50 was determined as 120 nM.
In the case of `CCCC(=O)c1cnn(-c2ccc(NC(=O)c3cn(CC(=O)N4CCC(C(F)(F)F)C4)c4ccc(Cl)cc34)nn2)c1C` (stereo not shown) [Compound 75], the IC50 under setting [1] amounted to 270 nM.
As for `CCCC(=O)c1cnn(-c2ccc(NC(=O)c3cn(CC(=O)N4Cc5ccncc5C4)c4ccc(Cl)cc34)nn2)c1C` [Compound 76], the IC50 under setting [1] was determined as 60 nM.
The same measure, in the same setting: with `CCCC(=O)c1cnn(-c2ccc(NC(=O)c3cn(CC(=O)N4CCN(C)C(C)C4)c4ccc(Cl)cc34)nn2)c1C` (stereo not shown) [Compound 77] the figure was 90 nM; with `CCCC(=O)c1cnn(-c2ccc(NC(=O)c3cn(CC(=O)NC(C)c4nn[nH]n4)c4ccc(Cl)cc34)nn2)c1C` (stereo not shown) [Compound 78], 280 nM.
Still for that read-out and setting: with `CCCC(=O)c1cnn(-c2ccc(NC(=O)c3cn(CC(=O)N4CCN(C5CCC5)CC4)c4ccc(Cl)cc34)nn2)c1C` [Compound 79] the figure was 80 nM.
On to `CCCC(=O)c1cnn(-c2ccc(NC(=O)c3cn(CC(=O)N4CCN(CC(=O)NC5CC5)CC4)c4ccc(Cl)cc34)nn2)c1C` [Compound 81], for which the IC50 under setting [1] came to 40 nM.
Consider `CCCC(=O)c1cnn(-c2ccc(NC(=O)c3cn(CC(=O)N4CCN(Cc5noc(C)n5)CC4)c4ccc(Cl)cc34)nn2)c1C` [Compound 82], for which the IC50 under setting [1] is 50 nM.
On the same count and under the same terms, the value for `CCCC(=O)c1cnn(-c2ccc(NC(=O)c3cn(CC(=O)NCC(C)(C)N(C)C)c4ccc(Cl)cc34)nn2)c1C` [Compound 83] was 330 nM; that for `CCCC(=O)c1cnn(-c2ccc(NC(=O)c3cn(CC(=O)N4CCN5CCCC5C4C)c4ccc(Cl)cc34)nn2)c1C` (stereo not shown) [Compound 84] was 90 nM.
For the compound `CCCC(=O)c1cnn(-c2ccc(NC(=O)c3cn(CC(=O)N4CCN(Cc5ccc(OC)c(F)c5)CC4)c4ccc(Cl)cc34)nn2)c1C` [Compound 85], the IC50 under setting [1] amounted to 100 nM.
Still for that read-out and setting: the value for `CCCC(=O)c1cnn(-c2ccc(NC(=O)c3cn(CC(=O)N4CC(N5CCCCC5)C4)c4ccc(Cl)cc34)nn2)c1C` [Compound 86] was 390 nM.
`CCCC(=O)c1cnn(-c2ccc(NC(=O)c3cn(CC(=O)N4CCN(CC(=O)OC)CC4)c4ccc(Cl)cc34)nn2)c1C` [Compound 87]: the IC50 under setting [1] amounted to 40 nM.
Still for that read-out and setting: the value for `CCCC(=O)c1cnn(-c2ccc(NC(=O)c3cn(CC(=O)N4CC5CCCN5CC4C)c4ccc(Cl)cc34)nn2)c1C` (stereo not shown) [Compound 88] was 90 nM; that for `CCCC(=O)c1cnn(-c2ccc(NC(=O)c3cn(CC(=O)N4CC5CCCCN5CC4C)c4ccc(Cl)cc34)nn2)c1C` (stereo not shown) [Compound 89] was 170 nM; that for `CCCC(=O)c1cnn(-c2ccc(NC(=O)c3cn(CC(=O)N(C)C4CC4)c4ccc(Cl)cc34)nn2)c1C` [Compound 90] was 60 nM.
Same read-out and setting: with `CCCC(=O)c1cnn(-c2ccc(NC(=O)c3cn(CC(=O)N(C)CC4CCOC4)c4ccc(Cl)cc34)nn2)c1C` (stereo not shown) [Compound 91] the figure was 120 nM; with `CCCC(=O)c1cnn(-c2ccc(NC(=O)c3cn(CC(=O)N4CCN(Cc5ccc(F)cc5)CC4)c4ccc(Cl)cc34)nn2)c1C` [Compound 92], 200 nM.
On to `CCCC(=O)c1cnn(-c2ccc(NC(=O)c3cn(CC(=O)N4CCN(CCOCC)CC4)c4ccc(Cl)cc34)nn2)c1C` [Compound 93], for which the IC50 under setting [1] worked out at 150 nM.
As to `CCCC(=O)c1cnn(-c2ccc(NC(=O)c3cn(CC(=O)N4CCC(OC)CC4)c4ccc(Cl)cc34)nn2)c1C` [Compound 94], the IC50 under setting [1] worked out at 180 nM.
Still for that read-out and setting: the value for `CCCC(=O)c1cnn(-c2ccc(NC(=O)c3cn(CC(=O)N4CCN(CCO)CC4)c4ccc(Cl)cc34)nn2)c1C` [Compound 95] was 50 nM.
Turning to `CCCC(=O)c1cnn(-c2ccc(NC(=O)c3cn(CC(=O)NCc4cc(C)no4)c4ccc(Cl)cc34)nn2)c1C` [Compound 96], the IC50 under setting [1] amounted to 930 nM.
In the case of `CCCC(=O)c1cnn(-c2ccc(NC(=O)c3cn(CC(=O)N(C)CCN(C)C)c4ccc(Cl)cc34)nn2)c1C` [Compound 97], under setting [1], the IC50 is 90 nM.
Same read-out and setting: the value for `CCCC(=O)c1cnn(-c2ccc(NC(=O)c3cn(CC(=O)N4CCN(CCN(C)C)CC4)c4ccc(Cl)cc34)nn2)c1C` [Compound 98] was 70 nM; that for `CCCC(=O)c1cnn(-c2ccc(NC(=O)c3cn(CC(=O)N4CCCN(C)CC4)c4ccc(Cl)cc34)nn2)c1C` [Compound 99] was 110 nM; that for `CCCC(=O)c1cnn(-c2ccc(NC(=O)c3cn(CC(=O)N4CCN(CC(=O)N(C)C)CC4)c4ccc(Cl)cc34)nn2)c1C` [Compound 101] was 110 nM.
The same measure, in the same setting: the value for `CCCC(=O)c1cnn(-c2ccc(NC(=O)c3cn(CC(=O)N4CCN(Cc5ccncc5)CC4)c4ccc(Cl)cc34)nn2)c1C` [Compound 102] was 30 nM; that for `CCCC(=O)c1cnn(-c2ccc(NC(=O)c3cn(CC(=O)N4CC(N5CCOCC5)C4)c4ccc(Cl)cc34)nn2)c1C` [Compound 104] was 100 nM.
As to `CCCC(=O)c1cnn(-c2ccc(NC(=O)c3cn(CC(=O)N(C)C)c4cc(C)c(C)cc34)cc2)c1C` [Compound 106], the IC50 (rat blood, in vitro) turned out to be 2210 nM.
Take `CCCC(=O)c1cnn(-c2ccc(NC(=O)c3cn(CC(=O)N(C)CCO)c4cc(C)c(C)cc34)cc2)c1C` [Compound 108]: the IC50 (rat blood, in vitro) was found to be 980 nM.
For the compound `CCCC(=O)c1cnn(-c2ccc(NC(=O)c3cn(CC(=O)NC)c4cc(C)c(C)cc34)cc2)c1C` [Compound 109], the IC50 (rat blood, in vitro) came out at 2420 nM.
